Columns and labels:
Assay type in all cases: in vivo
Scirpus juncoides [1] = assay: Test Example 1: herbicidal effect test by soil treatment in paddy field; settings: 120 g/10a, paddy soil treatment just after sowing, 14 days after treatment
Description: (§1) A Wagner pot having an area of 1/10000 are was filled with paddy field soil and after adding water, a chemical fertilizer (N:P:K=17:17:17) was mixed, followed by puddling. Thereafter, 30 grains of each of Echinochloa crus-galli, broad-leaved weed (Lindernia pyxidaria and Monochoria vaginalis) and Scirpus juncoides seeds were sown to a depth of 0 to 1 cm. Immediately after the sowing, the pot was flooded, and the depth of water was kept at about 3 cm. The pot was subsequently managed in a glass greenhouse. Just after that, an emulsifiable concentrate prepared according to Formulation Example 5 by using the compound shown in Table 5 below was diluted with water, and a predetermined amount of the water-diluted formulation was added dropwise. The application rate of the active ingredient, by conversion, corresponded to 120 g per 10 are.
(§2) This test was performed with two replications per one formulation concentration plot, and 14 days after the formulation treatments, the weed suppression rate (%) was determined according to the following equation (Math. 1). Weed suppression rate (%)=(1−an average dry weight (g) of plants in treated plots/an average dry weight (g) of plants in untreated plots)×100 [Math. 1]

Monochoria vaginalis [2] = assay: as above; settings: 120 g/10a, paddy soil treatment just after sowing, 14 days after treatment
Description: as §1, §2

Lindernia pyxidaria [3] = assay: as above; settings: 120 g/10a, paddy soil treatment just after sowing, 14 days after treatment
Description: as §1, §2

Echinochloa crus-galli [4] = assay: as above; settings: 120 g/10a, paddy soil treatment just after sowing, 14 days after treatment
Description: as §1, §2

Scirpus juncoides [5] = assay: Test Example 2: herbicidal effect test by treatment during growing period in paddy field; settings: treatment 7 days after sowing, 120 g/10a, evaluated 14 days after treatment
Method: as §2
as §1, with “greenhouse. Seven days” for “greenhouse. Just”, “after sowing,” for “after that,”, “Table 6” for “Table 5”, “are. The test was performed with two replications per one formulation concentration plot, and 14 days after the formulation treatments, the weed suppression rate (%) was determined according to the equation (Math. 1).” for “are.”

Monochoria vaginalis [6] = assay: as above; settings: treatment 7 days after sowing, 120 g/10a, evaluated 14 days after treatment
Method: as §2
as §1, with “greenhouse. Seven days” for “greenhouse. Just”, “after sowing,” for “after that,”, “Table 6” for “Table 5”, “are. The test was performed with two replications per one formulation concentration plot, and 14 days after the formulation treatments, the weed suppression rate (%) was determined according to the equation (Math. 1).” for “are.”

Lindernia pyxidaria [7] = assay: as above; settings: treatment 7 days after sowing, 120 g/10a, evaluated 14 days after treatment
Method: as §2
as §1, with “greenhouse. Seven days” for “greenhouse. Just”, “after sowing,” for “after that,”, “Table 6” for “Table 5”, “are. The test was performed with two replications per one formulation concentration plot, and 14 days after the formulation treatments, the weed suppression rate (%) was determined according to the equation (Math. 1).” for “are.”

Echinochloa crus-galli [8] = assay: as above; settings: treatment 7 days after sowing, 120 g/10a, evaluated 14 days after treatment
Method: as §2
as §1, with “greenhouse. Seven days” for “greenhouse. Just”, “after sowing,” for “after that,”, “Table 6” for “Table 5”, “are. The test was performed with two replications per one formulation concentration plot, and 14 days after the formulation treatments, the weed suppression rate (%) was determined according to the equation (Math. 1).” for “are.”

Row | SMILES | weed suppression rate, Scirpus juncoides (Scirpus juncoides [1]) [%] | weed suppression rate, Monochoria vaginalis (Monochoria vaginalis [2]) [%] | weed suppression rate, Lindemia pyxidaria (Lindernia pyxidaria [3]) [%] | weed suppression rate, Echinochloa crus-galli (Echinochloa crus-galli [4]) [%] | weed suppression rate, Scirpus juncoides (Scirpus juncoides [5]) [%] | weed suppression rate, Monochoria vaginalis (Monochoria vaginalis [6]) [%] | weed suppression rate, Lindemia pyxidaria (Lindernia pyxidaria [7]) [%] | weed suppression rate, Echinochloa crus-galli (Echinochloa crus-galli [8]) [%]
1 | Cc1cc(F)ccc1N(C(=O)n1ncn(S(=O)(=O)C2CC2)c1=O)C(C)C [Compound 1-220] | 90 | 80 | 100 | 100 | 90 | 100 | 90 | 100
2 | Cc1ccc(N(C(=O)n2ncn(S(=O)(=O)C3CC3)c2=O)C(C)C)c(Cl)c1 [Compound 1-223] | 90 | 80 | 80 | 100 | 90 | 80 | 80 | 90
3 | CC(C)N(Cc1ccc(F)cc1F)C(=O)n1ncn(S(=O)(=O)C2CC2)c1=O [Compound 1-238] | 90 | 80 | 80 | 90 | 90 | 90 | 80 | 90
4 | CC(C)N(C(=O)n1ncn(S(=O)(=O)C2CC2)c1=O)c1ccc(Cl)nc1 [Compound 1-248] | 100 | 90 | 100 | 100 | 90 | 90 | 90 | 100
5 | Cc1cc(N(C(=O)n2ncn(S(=O)(=O)C3CC3)c2=O)C(C)C)no1 [Compound 1-250] | 90 | 80 | 80 | 90 | 80 | 90 | 90 | 90
6 | CC(C)N(C(=O)n1ncn(S(=O)(=O)C2CCCCC2)c1=O)c1ccccc1F [Compound 1-296] | 90 | 80 | 80 | 90 | 90 | 90 | 90 | 90
7 | CC(C)N(C(=O)n1ncn(S(=O)(=O)C2CCCCC2)c1=O)c1c(F)cc(F)cc1F [Compound 1-310] | 100 | 100 | 100 | 100 | 100 | 100 | 100 | 100
8 | CC(C)N(C(=O)n1ncn(S(=O)(=O)C2CCCCC2)c1=O)c1ccc(Cl)cc1F [Compound 1-314] | 100 | 80 | 100 | 100 | 100 | 90 | 100 | 90
9 | Cc1ccc(N(C(=O)n2ncn(S(=O)(=O)C3CCCCC3)c2=O)C(C)C)c(F)c1 [Compound 1-320] | 90 | 90 | 90 | 90 | 90 | 80 | 80 | 90

From US11076595B2, “1-(n,n-disubstituted carbamoyl) 4-(substituted sulfonyl)triazolin-5-one derivative, 4-(n,n-disubstituted carbamoyl) 1-(substituted sulfonyl)triazolin-5-one derivative, and herbicide containing said derivative as active ingredient” (HOKKO CHEMICAL INDUSTRY CO., LTD., priority 2017, dated 2021)
